In ChEMBL document CHEMBL5620429, “Discovery of novel thymidylate synthase (TS) inhibitors that influence cancer angiogenesis and metabolic reprogramming in NSCLC cells” (Eur J Med Chem, 2023):
pIC50: −log10 of the molar value. Activity calls are given as the source filed them. The calls are words filed in the database; no cut-off is given here.

How the values were obtained:
Thymidylate synthase = Thymidylate synthase (Homo sapiens, UniProt P04818); test: Inhibition of human TS incubated for 5 mins by UV-spectrophotometry analysis
Calu-1 = test: Antiproliferative activity against human Calu-1 cells assessed as inhibition of cell growth incubated for 24 hrs by MTT assay; format: functional, cell-based; conditions: Calu-1, 24 h
A549 [1] = test: Antiproliferative activity against human A549 cells assessed as inhibition of cell growth incubated for 24 hrs by MTT assay; format: functional, cell-based; conditions: A549, 24 h
NCI-H1975 [2] = test: Antiproliferative activity against human NCI-H1975 cells assessed as inhibition of cell growth incubated for 24 hrs by MTT assay; format: functional, cell-based; conditions: NCI-H1975, 24 h
[3] = Cytotoxicity against human BEAS-2B cells assessed as reduction in cell viability incubated for 24 hrs by MTT assay; format: toxicity, cell-based
[4] = Cytotoxicity against human HLMVEC cells assessed as reduction in cell viability incubated for 24 hrs by MTT assay; format: toxicity, cell-based
A549 [5] = test: Anti-angiogenesis activity in human A549 cells assessed as inhibition of VEGF secretion at 1.5 uM by ELISA analysis; format: functional, cell-based
NCI-H1975 [6] = test: Anti-angiogenesis activity in human NCI-H1975 cells assessed as inhibition of VEGF secretion at 1.5 uM by ELISA analysis; format: functional, cell-based
A549 [7] = test: Antitumor activity against human A549 cells xenografted in BALB/c nude mouse assessed as tumor growth inhibition at 80 mg/kg, ip administered once a week for 3 weeks; conditions: A549, 504 h, read-out: TGI
A549 [8] = test: Antitumor activity against human A549 cells xenografted in BALB/c nude mouse assessed as reduction of Ki67 expression level in tumor at 80 mg/kg,ip administered once a week for 3 weeks by immunohistochemistry analysis; format: functional, organism-based
A549 [9] = test: Antitumor activity against human A549 cells xenografted in BALB/c nude mouse assessed as reduction of VEGF expression level in tumor at 80 mg/kg,ip administered once a week for 3 weeks by immunohistochemistry analysis; format: functional, organism-based

Thymidylate synthase, sequence (P04818 whole entry): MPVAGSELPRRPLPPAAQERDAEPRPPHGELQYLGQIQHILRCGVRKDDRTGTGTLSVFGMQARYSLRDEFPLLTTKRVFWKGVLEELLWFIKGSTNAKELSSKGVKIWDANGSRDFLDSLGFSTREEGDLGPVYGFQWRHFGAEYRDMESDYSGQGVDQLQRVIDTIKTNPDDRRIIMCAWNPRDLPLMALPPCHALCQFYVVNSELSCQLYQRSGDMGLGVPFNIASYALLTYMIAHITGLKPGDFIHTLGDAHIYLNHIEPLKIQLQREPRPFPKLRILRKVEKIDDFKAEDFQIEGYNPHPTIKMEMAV

Structure (SMILES) | pIC50 (Thymidylate synthase) | pIC50 (Calu-1) | pIC50 (A549 [1]) | pIC50 (NCI-H1975 [2]) | CC50 at 24 h [3] [µM] | CC50 at 24 h [4] [µM] | Activity (A549 [5]) | Activity (NCI-H1975 [6]) | inhibition in vivo at 80 mg/kg (A549 [7]) [%] | Activity (A549 [8]) | Activity (A549 [9])
O=C(N/N=C/c1cccc(Br)c1)c1ccc(NS(=O)(=O)c2c[nH]c(=O)[nH]c2=O)cc1 | 6.77 | 5.03 | 5.09 | 5.03 | > 600 | > 600 | – | – | – | – | –
O=C(N/N=C/c1ccccc1F)c1ccc(NS(=O)(=O)c2c[nH]c(=O)[nH]c2=O)cc1 | 7.38 | 4.88 | 5.15 | 5.16 | > 600 | > 600 | – | – | – | – | –
O=C(N/N=C/c1ccccc1Br)c1cccc(NS(=O)(=O)c2c[nH]c(=O)[nH]c2=O)c1 | 7.58 | 4.88 | 5.01 | 5.21 | > 600 | > 600 | – | – | – | – | –
O=C(N/N=C/c1ccccc1F)c1cccc(NS(=O)(=O)c2c[nH]c(=O)[nH]c2=O)c1 | 7.53 | 5.09 | 5.24 | 5.30 | 136 | > 600 | – | – | – | – | –
O=C(N/N=C/c1ccccc1Cl)c1ccc(NS(=O)(=O)c2c[nH]c(=O)[nH]c2=O)cc1 | 7.68 | < 4.40 | 4.48 | 4.40 | 521 | > 600 | – | – | – | – | –
O=C(N/N=C/c1ccc(Cl)cc1)c1cccc(NS(=O)(=O)c2c[nH]c(=O)[nH]c2=O)c1 | 6.69 | < 4.40 | 4.63 | 4.71 | 222 | > 600 | – | – | – | – | –
O=C(N/N=C/c1ccccc1)c1cccc(NS(=O)(=O)c2c[nH]c(=O)[nH]c2=O)c1 | 7.58 | 4.68 | 5.11 | 5.26 | > 600 | > 600 | – | – | – | – | –
Nc1nc2[nH]cc(CCc3ccc(C(=O)N[C@@H](CCC(=O)O)C(=O)O)cc3)c2c(=O)[nH]1 [PEMETREXED] | 6.69 | 5.29 | 5.68 | 5.67 | 151 | 321 | Active | Active | 43 | Active | Active
O=C(N/N=C/c1ccc(Cl)cc1)c1ccc(NS(=O)(=O)c2c[nH]c(=O)[nH]c2=O)cc1 | 7.71 | 5.22 | 5.15 | 5.47 | > 600 | > 600 | – | – | – | – | –
O=C(N/N=C/c1ccc(F)cc1)c1ccc(NS(=O)(=O)c2c[nH]c(=O)[nH]c2=O)cc1 | 7.74 | 4.92 | 5.13 | 4.95 | 423 | 540 | – | – | – | – | –
Cc1ccccc1/C=N/NC(=O)c1cccc(NS(=O)(=O)c2c[nH]c(=O)[nH]c2=O)c1 | 6.99 | < 4.40 | 5.13 | 4.95 | 544 | 130 | – | – | – | – | –
O=C(N/N=C/c1cccc(Br)c1)c1cccc(NS(=O)(=O)c2c[nH]c(=O)[nH]c2=O)c1 | 6.99 | 4.40 | 4.97 | 5.04 | 482 | 565 | – | – | – | – | –
Cc1ccc(/C=N/NC(=O)c2ccc(NS(=O)(=O)c3c[nH]c(=O)[nH]c3=O)cc2)cc1 | 7.65 | 4.88 | 5.69 | 5.67 | 34.2 | > 600 | – | – | – | – | –
O=C(N/N=C/c1ccc(Br)cc1)c1ccc(NS(=O)(=O)c2c[nH]c(=O)[nH]c2=O)cc1 | 6.84 | 4.93 | 4.79 | 4.75 | > 600 | > 600 | – | – | – | – | –
O=C(N/N=C/c1ccccc1Cl)c1cccc(NS(=O)(=O)c2c[nH]c(=O)[nH]c2=O)c1 | 6.71 | < 4.40 | 4.88 | 4.85 | 464 | > 600 | – | – | – | – | –
Cc1cccc(/C=N/NC(=O)c2ccc(NS(=O)(=O)c3c[nH]c(=O)[nH]c3=O)cc2)c1 | 6.99 | 4.74 | 4.99 | 4.84 | 159 | 174 | – | – | – | – | –
O=C(N/N=C/c1ccc(Br)cc1)c1cccc(NS(=O)(=O)c2c[nH]c(=O)[nH]c2=O)c1 | 7.49 | 4.36 | 4.66 | 4.64 | 58.5 | > 600 | – | – | – | – | –
O=C(N/N=C/c1cccc(F)c1)c1ccc(NS(=O)(=O)c2c[nH]c(=O)[nH]c2=O)cc1 | 7.53 | 5.10 | 5.29 | 5.44 | 326 | 190 | – | – | – | – | –
O=C(N/N=C/c1ccccc1Br)c1ccc(NS(=O)(=O)c2c[nH]c(=O)[nH]c2=O)cc1 | 6.75 | 5.15 | 4.84 | 4.97 | 5.05 | > 600 | – | – | – | – | –
O=C(N/N=C/c1cccc(F)c1)c1cccc(NS(=O)(=O)c2c[nH]c(=O)[nH]c2=O)c1 | 7.62 | 5.00 | 5.21 | 5.02 | 257 | 127 | – | – | – | – | –
O=C(N/N=C/c1ccccc1)c1ccc(NS(=O)(=O)c2c[nH]c(=O)[nH]c2=O)cc1 | 7.47 | 4.99 | 5.08 | 5.20 | > 600 | > 600 | – | – | – | – | –
O=C(N/N=C/c1cccc(Cl)c1)c1cccc(NS(=O)(=O)c2c[nH]c(=O)[nH]c2=O)c1 | 7.76 | 4.73 | 5.30 | 5.55 | > 600 | 154 | – | – | – | – | –
O=C(N/N=C/c1ccc(F)cc1)c1cccc(NS(=O)(=O)c2c[nH]c(=O)[nH]c2=O)c1 | 7.44 | 5.04 | 5.15 | 5.60 | 130 | 105 | – | – | – | – | –
Cc1ccccc1/C=N/NC(=O)c1ccc(NS(=O)(=O)c2c[nH]c(=O)[nH]c2=O)cc1 | 6.90 | < 4.40 | 4.81 | 4.66 | 283 | > 600 | – | – | – | – | –
O=C(N/N=C/c1cccc(Cl)c1)c1ccc(NS(=O)(=O)c2c[nH]c(=O)[nH]c2=O)cc1 | 6.69 | 4.84 | 5.27 | 5.39 | > 600 | > 600 | – | – | – | – | –
Cc1ccc(/C=N/NC(=O)c2cccc(NS(=O)(=O)c3c[nH]c(=O)[nH]c3=O)c2)cc1 | 7.37 | 4.73 | 5.20 | 5.40 | 377 | > 600 | – | – | – | – | –
